Reference: the NIST ThermoML archive (doi:10.1021/je5010643)
Numbers after ± are expanded uncertainties.

Experiment: xn = mol fraction of the nth substance listed
Details: 101.32 kPa, Liquid; for speed of sound: Frequency=3 MHz, Linear variable-path acoustic interferometer

CC(C)C(=O)O [2-methylpropanoic acid] + C1COCCO1
speed of sound (295.15 K, x2 = 0): 1100.2 ± 1.6 m/s | speed of sound (295.15 K, x2 = 0.1): 1119.6 ± 1.6 m/s | speed of sound (295.15 K, x2 = 0.2): 1140 ± 1.6 m/s | speed of sound (295.15 K, x2 = 0.3): 1161.7 ± 1.6 m/s | speed of sound (295.15 K, x2 = 0.4): 1184.5 ± 1.7 m/s | speed of sound (295.15 K, x2 = 0.5): 1208.8 ± 1.7 m/s | speed of sound (295.15 K, x2 = 0.6): 1234.7 ± 1.7 m/s | speed of sound (295.15 K, x2 = 0.7): 1262.3 ± 1.7 m/s | speed of sound (295.15 K, x2 = 0.8): 1291.8 ± 1.7 m/s | speed of sound (295.15 K, x2 = 0.9): 1323.6 ± 1.8 m/s | mass density (295.15 K, x2 = 0): 945.28 ± 1 kg/m3 | mass density (295.15 K, x2 = 0.1): 955.63 ± 0.96 kg/m3 | mass density (295.15 K, x2 = 0.2): 965.46 ± 0.9 kg/m3 | mass density (295.15 K, x2 = 0.3): 975.08 ± 0.85 kg/m3 | mass density (295.15 K, x2 = 0.4): 984.2 ± 0.79 kg/m3 | mass density (295.15 K, x2 = 0.5): 993.05 ± 0.74 kg/m3 | mass density (295.15 K, x2 = 0.6): 1001.52 ± 0.71 kg/m3 | mass density (295.15 K, x2 = 0.7): 1009.56 ± 0.76 kg/m3 | mass density (295.15 K, x2 = 0.8): 1017.23 ± 0.81 kg/m3 | mass density (295.15 K, x2 = 0.9): 1024.38 ± 0.86 kg/m3 | speed of sound (298.15 K, x2 = 0): 1086 ± 1.6 m/s | speed of sound (298.15 K, x2 = 0.1): 1105.4 ± 1.6 m/s | speed of sound (298.15 K, x2 = 0.2): 1125.9 ± 1.6 m/s | speed of sound (298.15 K, x2 = 0.3): 1147.5 ± 1.6 m/s | speed of sound (298.15 K, x2 = 0.4): 1170.5 ± 1.7 m/s | speed of sound (298.15 K, x2 = 0.5): 1194.9 ± 1.7 m/s | speed of sound (298.15 K, x2 = 0.6): 1220.8 ± 1.7 m/s | speed of sound (298.15 K, x2 = 0.7): 1248.6 ± 1.7 m/s | speed of sound (298.15 K, x2 = 0.8): 1278.3 ± 1.7 m/s | speed of sound (298.15 K, x2 = 0.9): 1310.3 ± 1.8 m/s | mass density (298.15 K, x2 = 0): 942.22 ± 1 kg/m3 | mass density (298.15 K, x2 = 0.1): 952.65 ± 0.98 kg/m3 | mass density (298.15 K, x2 = 0.2): 962.63 ± 0.92 kg/m3 | mass density (298.15 K, x2 = 0.3): 972.12 ± 0.86 kg/m3 | mass density (298.15 K, x2 = 0.4): 981.18 ± 0.81 kg/m3 | mass density (298.15 K, x2 = 0.5): 989.97 ± 0.76 kg/m3 | mass density (298.15 K, x2 = 0.6): 998.46 ± 0.71 kg/m3 | mass density (298.15 K, x2 = 0.7): 1006.5 ± 0.74 kg/m3 | mass density (298.15 K, x2 = 0.8): 1014.12 ± 0.79 kg/m3 | mass density (298.15 K, x2 = 0.9): 1021.3 ± 0.84 kg/m3 | speed of sound (301.15 K, x2 = 0): 1072.1 ± 1.6 m/s | speed of sound (301.15 K, x2 = 0.1): 1091.5 ± 1.6 m/s | speed of sound (301.15 K, x2 = 0.2): 1111.9 ± 1.6 m/s | speed of sound (301.15 K, x2 = 0.3): 1133.6 ± 1.6 m/s | speed of sound (301.15 K, x2 = 0.4): 1156.6 ± 1.6 m/s | speed of sound (301.15 K, x2 = 0.5): 1181.1 ± 1.7 m/s | speed of sound (301.15 K, x2 = 0.6): 1207.2 ± 1.7 m/s | speed of sound (301.15 K, x2 = 0.7): 1235 ± 1.7 m/s | speed of sound (301.15 K, x2 = 0.8): 1264.9 ± 1.7 m/s | speed of sound (301.15 K, x2 = 0.9): 1297.1 ± 1.8 m/s | mass density (301.15 K, x2 = 0): 939.16 ± 1.1 kg/m3 | mass density (301.15 K, x2 = 0.1): 949.87 ± 0.99 kg/m3 | mass density (301.15 K, x2 = 0.2): 959.66 ± 0.94 kg/m3 | mass density (301.15 K, x2 = 0.3): 969.21 ± 0.88 kg/m3 | mass density (301.15 K, x2 = 0.4): 978.18 ± 0.83 kg/m3 | mass density (301.15 K, x2 = 0.5): 986.93 ± 0.78 kg/m3 | mass density (301.15 K, x2 = 0.6): 995.31 ± 0.73 kg/m3 | mass density (301.15 K, x2 = 0.7): 1003.43 ± 0.72 kg/m3 | mass density (301.15 K, x2 = 0.8): 1011.08 ± 0.77 kg/m3 | mass density (301.15 K, x2 = 0.9): 1018.24 ± 0.82 kg/m3 | speed of sound (304.15 K, x2 = 0): 1058.2 ± 1.6 m/s | speed of sound (304.15 K, x2 = 0.1): 1077.6 ± 1.6 m/s | speed of sound (304.15 K, x2 = 0.2): 1098 ± 1.6 m/s | speed of sound (304.15 K, x2 = 0.3): 1119.7 ± 1.6 m/s | speed of sound (304.15 K, x2 = 0.4): 1142.8 ± 1.6 m/s | speed of sound (304.15 K, x2 = 0.5): 1167.3 ± 1.7 m/s | speed of sound (304.15 K, x2 = 0.6): 1193.4 ± 1.7 m/s | speed of sound (304.15 K, x2 = 0.7): 1221.5 ± 1.7 m/s | speed of sound (304.15 K, x2 = 0.8): 1251.5 ± 1.7 m/s | speed of sound (304.15 K, x2 = 0.9): 1283.9 ± 1.7 m/s | mass density (304.15 K, x2 = 0): 936.1 ± 1.1 kg/m3 | mass density (304.15 K, x2 = 0.1): 946.87 ± 1 kg/m3 | mass density (304.15 K, x2 = 0.2): 956.7 ± 0.95 kg/m3 | mass density (304.15 K, x2 = 0.3): 966.21 ± 0.9 kg/m3 | mass density (304.15 K, x2 = 0.4): 975.19 ± 0.84 kg/m3 | mass density (304.15 K, x2 = 0.5): 983.97 ± 0.79 kg/m3 | mass density (304.15 K, x2 = 0.6): 992.36 ± 0.74 kg/m3 | mass density (304.15 K, x2 = 0.7): 1000.47 ± 0.7 kg/m3 | mass density (304.15 K, x2 = 0.8): 1008.1 ± 0.75 kg/m3 | mass density (304.15 K, x2 = 0.9): 1015.19 ± 0.8 kg/m3 | speed of sound (307.15 K, x2 = 0): 1043.4 ± 1.6 m/s | speed of sound (307.15 K, x2 = 0.1): 1062.8 ± 1.6 m/s | speed of sound (307.15 K, x2 = 0.2): 1083.4 ± 1.6 m/s | speed of sound (307.15 K, x2 = 0.3): 1105.1 ± 1.6 m/s | speed of sound (307.15 K, x2 = 0.4): 1128.3 ± 1.6 m/s | speed of sound (307.15 K, x2 = 0.5): 1152.9 ± 1.6 m/s | speed of sound (307.15 K, x2 = 0.6): 1179.3 ± 1.7 m/s | speed of sound (307.15 K, x2 = 0.7): 1207.5 ± 1.7 m/s | speed of sound (307.15 K, x2 = 0.8): 1237.9 ± 1.7 m/s | speed of sound (307.15 K, x2 = 0.9): 1270.7 ± 1.7 m/s | mass density (307.15 K, x2 = 0): 933.04 ± 1.1 kg/m3 | mass density (307.15 K, x2 = 0.1): 943.94 ± 1 kg/m3 | mass density (307.15 K, x2 = 0.2): 953.7 ± 0.97 kg/m3 | mass density (307.15 K, x2 = 0.3): 963.19 ± 0.91 kg/m3 | mass density (307.15 K, x2 = 0.4): 972.14 ± 0.86 kg/m3 | mass density (307.15 K, x2 = 0.5): 981.02 ± 0.81 kg/m3 | mass density (307.15 K, x2 = 0.6): 989.41 ± 0.76 kg/m3 | mass density (307.15 K, x2 = 0.7): 997.53 ± 0.71 kg/m3 | mass density (307.15 K, x2 = 0.8): 1005.12 ± 0.73 kg/m3 | mass density (307.15 K, x2 = 0.9): 1011.87 ± 0.78 kg/m3 | speed of sound (310.15 K, x2 = 0): 1030.8 ± 1.6 m/s | speed of sound (310.15 K, x2 = 0.1): 1050.1 ± 1.6 m/s | speed of sound (310.15 K, x2 = 0.2): 1070.6 ± 1.6 m/s | speed of sound (310.15 K, x2 = 0.3): 1092.3 ± 1.6 m/s | speed of sound (310.15 K, x2 = 0.4): 1115.4 ± 1.6 m/s | speed of sound (310.15 K, x2 = 0.5): 1139.9 ± 1.6 m/s | speed of sound (310.15 K, x2 = 0.6): 1166.3 ± 1.7 m/s | speed of sound (310.15 K, x2 = 0.7): 1194.5 ± 1.7 m/s | speed of sound (310.15 K, x2 = 0.8): 1224.9 ± 1.7 m/s | speed of sound (310.15 K, x2 = 0.9): 1257.7 ± 1.7 m/s | mass density (310.15 K, x2 = 0): 929.98 ± 1.1 kg/m3 | mass density (310.15 K, x2 = 0.1): 941.03 ± 1.1 kg/m3 | mass density (310.15 K, x2 = 0.2): 950.89 ± 0.99 kg/m3 | mass density (310.15 K, x2 = 0.3): 960.24 ± 0.93 kg/m3 | mass density (310.15 K, x2 = 0.4): 969.24 ± 0.88 kg/m3 | mass density (310.15 K, x2 = 0.5): 978.07 ± 0.83 kg/m3 | mass density (310.15 K, x2 = 0.6): 986.45 ± 0.78 kg/m3 | mass density (310.15 K, x2 = 0.7): 994.54 ± 0.73 kg/m3 | mass density (310.15 K, x2 = 0.8): 1002.1 ± 0.71 kg/m3 | mass density (310.15 K, x2 = 0.9): 1008.86 ± 0.76 kg/m3 | speed of sound (313.15 K, x2 = 0): 1015.2 ± 1.6 m/s | speed of sound (313.15 K, x2 = 0.1): 1034.6 ± 1.6 m/s | speed of sound (313.15 K, x2 = 0.2): 1055.1 ± 1.6 m/s | speed of sound (313.15 K, x2 = 0.3): 1076.9 ± 1.6 m/s | speed of sound (313.15 K, x2 = 0.4): 1100.2 ± 1.6 m/s | speed of sound (313.15 K, x2 = 0.5): 1125 ± 1.6 m/s | speed of sound (313.15 K, x2 = 0.6): 1151.6 ± 1.6 m/s | speed of sound (313.15 K, x2 = 0.7): 1180.1 ± 1.7 m/s | speed of sound (313.15 K, x2 = 0.8): 1210.9 ± 1.7 m/s | speed of sound (313.15 K, x2 = 0.9): 1244.2 ± 1.7 m/s | mass density (313.15 K, x2 = 0): 926.92 ± 1.1 kg/m3 | mass density (313.15 K, x2 = 0.1): 938.11 ± 1.1 kg/m3 | mass density (313.15 K, x2 = 0.2): 947.93 ± 1 kg/m3 | mass density (313.15 K, x2 = 0.3): 957.22 ± 0.95 kg/m3 | mass density (313.15 K, x2 = 0.4): 966.21 ± 0.9 kg/m3 | mass density (313.15 K, x2 = 0.5): 975.03 ± 0.84 kg/m3 | mass density (313.15 K, x2 = 0.6): 983.45 ± 0.8 kg/m3 | mass density (313.15 K, x2 = 0.7): 991.62 ± 0.75 kg/m3 | mass density (313.15 K, x2 = 0.8): 999.14 ± 0.7 kg/m3 | mass density (313.15 K, x2 = 0.9): 1005.92 ± 0.74 kg/m3
